The results in this text go back to US9403756B2, “N-phenyl anthranilic acid derivatives and uses thereof” (Ramot at Tel-Aviv University Ltd., priority 2007, dated 2016).

Entries after “also recorded” stand apart in the source; their conditions may differ. Read-outs that look alike come from different tables or passages of the source.

For one assay, the target named is T1, Kv7.2/3 channels (Homo sapiens, UniProt O43525+O43526).
T1 construct: expressed in transfected cells; host or cells: CHO cells
The experiment in a line: Kv7.2/3 channels coexpressed in CHO cells, whole-cell patch-clamp. Type of assay: cell-based. Particulars: for Activity: M-channel modulation, Kv7.2 and Kv7.3 subunits coexpressed in CHO cells; for EC50: read-out: EC50; for ΔV50 (mV): left-shift of the activation curve of Kv7.2/3 channels. The method, then: Chinese hamster ovary (CHO) cells were grown in Dulbecco's modified Eagle's medium (DMEM) supplemented with 2 mM glutamine, 10% fetal calf serum and antibiotics. Briefly, 40,000 cells seeded on poly-D-lysine-coated glass coverslips (13 mm diameter) in a 24-multiwell plate were transfected with pIRES-CD8 (0.5 μg) as a marker for transfection, and with Kv7.2 (0.5 μg) and Kv7.3 (0.5 μg) or TRPV1 […] or TRPV6 […].
For electrophysiology, transfected cells were visualized approximately 40 hours following transfection, using anti-CD8 antibody-coated beads. Transfection was performed using Fugene 6 (Roche, Indianapolis Ind., USA) according to the manufacturer's protocol.
Voltage-clamp recordings in CHO cells were performed, using the whole-cell configuration of the patch-clamp technique. Signals were amplified using an Axopatch 200B patch-clamp amplifier (Molecular Devices, Sunnyvale, Calif.), sampled at 2 kHz and filtered at 800 Hz via a 4-pole Bessel low pass filter. […] The patch pipettes were pulled from borosilicate glass (Warner Instrument Corp, USA) with a resistance of 2-5 MΩ. For K^+ current recordings in CHO cells, the intracellular pipette solution contained (in mM): 130 KCl, 1 MgCl2, 5 K2ATP, 5 EGTA, 10 HEPES, adjusted with KOH to pH 7.4 (290 mOsm). The extracellular solution contained (in mM): 140 NaCl, 4 KCl, 1.8 CaCl2, 1.2 MgCl2, 11 glucose, 5.5 HEPES, adjusted with NaOH to pH 7.4 (310 mOsm).
Data analysis was performed using the Clampfit program (pClamp 9.2, Molecular Devices), Microsoft Excel (Microsoft) and Prism 4.0 (GraphPad). Chord conductance (G) was calculated by using the following equation: G=I/(V−Vrev) where I corresponds to the current amplitude measured at the end of the pulse and Vrev, the calculated reversal potential. G was estimated at various test voltages V and then, normalized to a maximal conductance value, Gmax. Activation curves were fitted by one Boltzmann distribution: G/Gmax=1/{1+exp[(V50−V)/s]} where V50 is the voltage at which the current is half-activated and s is the slope factor. All data were expressed as mean±SEM. Statistically significant differences were assessed by Student's t-test. Analysis of sEPSCs and sIPSCs was done using the Clampfit program (pClamp 9.2, Molecular Devices) and included evaluation of the individual events as well as the average event amplitude and the integral of the event (total charge transfer).
In these studies, the impact of the compounds on M-channel activity was measured by the heterologous coexpression of Kv7.2 and Kv7.3 subunits in CHO cells.

For assay [1], the system named is maximal electroshock seizure model (MES) in ICR mice. The experiment in a line: Maximal electroshock seizure test (MES). Type of assay: in vivo. Conditions: 30 minutes before electroshock, data not shown. Here is the method: The anti-convulsant effect was measured by the maximal electroshock seizure model (MES) in ICR mice as previously described. The procedures followed for experimentation and maintenance of the animals were approved by the animal research ethics committee of Tel Aviv University and in accordance with the Guide for the Care and Use of Laboratory Animals (1996, National Academy of Sciences, Washington D.C.). Briefly, maximal electroshock was induced in adult mice by means of two transcorneal electrodes delivering an alternative current of 50 mA at 60 Hz for 0.2 sec using rodent shocker (Hugo Sachs Electronik, type 221). […] The compounds, dissolved in 0.9% saline, were administered intraperitoneally 30 minutes before the electroshock was performed. Animals failing to show tonic hind limb extension were scored as protected and were expressed in percentage.
Background: In the maximal electroshock model the usual endpoint is tonic extension of the hind limbs.

For a further assay, the target named is T2, KCNQ2 mutant R207W (Homo sapiens, UniProt O43526, R207W).
T2 construct: expressed in transfected cells; host or cells: CHO cells
T2 sequence (O43526 whole entry R207W): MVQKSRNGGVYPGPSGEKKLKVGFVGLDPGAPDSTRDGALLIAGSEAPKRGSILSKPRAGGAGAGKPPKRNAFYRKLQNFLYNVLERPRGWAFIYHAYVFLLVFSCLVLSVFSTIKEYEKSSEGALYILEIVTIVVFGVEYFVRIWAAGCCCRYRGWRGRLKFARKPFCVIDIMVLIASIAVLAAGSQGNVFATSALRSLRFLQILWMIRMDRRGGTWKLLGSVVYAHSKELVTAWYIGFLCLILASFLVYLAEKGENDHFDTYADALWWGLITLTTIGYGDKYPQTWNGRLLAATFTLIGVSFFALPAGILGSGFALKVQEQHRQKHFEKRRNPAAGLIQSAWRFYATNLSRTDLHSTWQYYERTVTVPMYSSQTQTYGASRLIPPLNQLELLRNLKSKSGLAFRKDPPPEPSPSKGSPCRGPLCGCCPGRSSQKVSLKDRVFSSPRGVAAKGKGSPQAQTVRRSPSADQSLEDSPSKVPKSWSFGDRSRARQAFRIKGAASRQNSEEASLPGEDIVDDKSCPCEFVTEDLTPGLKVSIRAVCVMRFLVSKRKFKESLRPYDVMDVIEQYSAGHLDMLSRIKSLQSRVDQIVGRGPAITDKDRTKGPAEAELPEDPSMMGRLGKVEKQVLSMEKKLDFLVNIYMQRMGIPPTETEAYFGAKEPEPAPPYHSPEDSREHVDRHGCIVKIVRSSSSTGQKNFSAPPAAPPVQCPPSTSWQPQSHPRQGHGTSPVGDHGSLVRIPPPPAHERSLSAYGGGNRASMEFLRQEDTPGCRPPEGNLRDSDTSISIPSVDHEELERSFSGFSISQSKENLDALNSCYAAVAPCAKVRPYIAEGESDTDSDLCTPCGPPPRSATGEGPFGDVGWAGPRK
Type of assay: cell-based. The text has this: FIGS. 10A-D present the potentiating effect of NH29, an exemplary channel opener compound according to embodiments of the present invention, on wild type KCNQ2 (FIGS. 10A and 10B) and R207W mutant (FIGS. 10C and 10D) channels, as expressed in activation curve measurements, showing that NH29 left-shifts the activation curve (ΔV50) by −15.5 mV and −5.5 mV in the case of the wild-type and the mutant, respectively, and showing that NH29 enhances the current of wild-type and the mutant by about 3.4-fold (at −40 mV) and 1.5-fold (at −20 mV), respectively.
FIGS. 11A-F present the potentiating effect of NH29, an exemplary channel opener compound according to embodiments of the present invention, and Retigabine, on KCNQ2 mutants R207W and W236L mutant. Shown are representative traces recorded from CHO cell transfected with the KCNQ2 mutant R207W 0, 1 and 4-4.5 minutes after external application of 25 μM of NH29 and wherein the membrane potential was stepped from −90 mV holding potential to −20 mV for 1.5 seconds pulse duration (FIG. 11A), or 0, 1 and 4 minutes after external application of 25 μM of Retigabine wherein the membrane potential was stepped from −90 mV holding potential to −40 mV for 1.5 seconds pulse duration (FIG. 11B). FIGS. 11C and 11D show representative traces recorded from CHO cells transfected with the KCNQ2 mutant W236L 0, 1 and 6 minutes after external application of 25 μM of NH29 (FIG. 11C) or 0 and 5 minutes after external application of 10 μM of Retigabine (FIG. 11D) and wherein the membrane potential was stepped from −90 mV holding potential to −40 mV for 1.5 seconds pulse duration. FIG. 11E presents superimposed traces, showing the effects of Retigabine (RTG) and NH29 on the channel activity of KCNQ2 mutant W236L as measured at −40 mV; and FIG. 11F presents a bar diagram comparing the potentiating effect of NH29 and Retigabine on native KCNQ2 and KCNQ2 mutants, wherein the opener effect is expressed as percent of the control current in the absence of the opener.
Voltage-clamp recordings in CHO cells were performed, using the whole-cell configuration of the patch-clamp technique. Signals were amplified using an Axopatch 200B patch-clamp amplifier (Molecular Devices, Sunnyvale, Calif.), sampled at 2 kHz and filtered at 800 Hz via a 4-pole Bessel low pass filter. Data were acquired using pClamp 9.2 software (Molecular Devices) and an IBM compatible Pentium IV computer in conjunction with a DigiData 1322A interface (Molecular Devices). The patch pipettes were pulled from borosilicate glass (Warner Instrument Corp, USA) with a resistance of 2-5 MΩ. For K^+ current recordings in CHO cells, the intracellular pipette solution contained (in mM): 130 KCl, 1 MgCl2, 5 K2ATP, 5 EGTA, 10 HEPES, adjusted with KOH to pH 7.4 (290 mOsm). The extracellular solution contained (in mM): 140 NaCl, 4 KCl, 1.8 CaCl2, 1.2 MgCl2, 11 glucose, 5.5 HEPES, adjusted with NaOH to pH 7.4 (310 mOsm). Series resistances (3-13 MΩ) were compensated (75-90%) and periodically monitored.

Where [2] appears, read: opener potency, concentration-dependent left-shift in half-activation potential ΔV50, sigmoidal fit.
Setting [3] is: compounds whose Activity is Blocker.

`O=C(O)Cc1ccccc1Nc1c(Cl)cccc1Cl` [Diclofenac, reference compound]: the Activity entry at Kv7.2/3 channels is “Opener”. Besides, the half-maximal effective concentration (EC50) on Kv7.2/3 channels (setting [2]) is 2.6 µM. On to `Cc1ccc(Cl)c(Nc2ccccc2C(=O)O)c1Cl` [Meclofenamic, Meclofenamic acid, reference compound], for which, on Kv7.2/3 channels, the Activity entry is reported as “Opener” and the “ΔV50 (mV)” value is on record as −22.7 mV. The half-maximal effective concentration (EC50) on Kv7.2/3 channels (setting [2]) turned out to be 25 µM. On to `CN(CCO)C(=O)Cc1ccccc1Nc1c(Cl)cccc1Cl` [NH5], for which the Activity result on Kv7.2/3 channels is recorded as “Opener”.

Take `O=C(Cc1ccccc1Nc1c(Cl)cccc1Cl)OCCOCCO` [NH6]: on Kv7.2/3 channels, the Activity entry is given as “Opener” and the “ΔV50 (mV)” value is given as −18.7 mV. For the same molecule, on Kv7.2/3 channels (setting [2]), the concentration for a half-maximal effect (EC50) was determined as 18 µM. For `O=C(Cc1ccccc1Nc1c(Cl)cccc1Cl)OCCO` [NH7], at Kv7.2/3 channels, the Activity entry is recorded as “Opener” and the “ΔV50 (mV)” value is −4.1 mV. With `COCCOCCOCCOCCOC(=O)Cc1ccccc1Nc1c(Cl)cccc1Cl` [NH8], the Activity result on Kv7.2/3 channels was “totally inactive”. `CC(C)COC(=O)Cc1ccccc1Nc1c(Cl)cccc1Cl` [NH9]: on Kv7.2/3 channels, the Activity entry is recorded as “potent M-channel blockers; also recorded: Blocker”. In addition, the concentration for a half-maximal effect (EC50) at Kv7.2/3 channels (setting [3]) is 50 µM.

On to `Cc1c(Cl)cccc1Nc1ccccc1C(=O)OCC(C)C` [NH10], for which the Activity result on Kv7.2/3 channels was “totally inactive”. On the same count and under the same terms, the entry for `CC(C)COC(=O)c1ccccc1Nc1cccc(C(F)(F)F)c1` [NH11] is “totally inactive”.

On to `COCCOCCOC(=O)Cc1ccccc1Nc1c(Cl)cccc1Cl` [NH13], for which the Activity result on Kv7.2/3 channels was “totally inactive”. Take `O=C(Cc1ccccc1Nc1c(Cl)cccc1Cl)NCCOCCO` [NH14]: on Kv7.2/3 channels, the Activity entry is given as “Opener” and the “ΔV50 (mV)” value is −12.6 mV. As for `Cc1cccc(Nc2ccccc2C(=O)NCCOCCO)c1C` [NH15], at Kv7.2/3 channels, the Activity entry was “Opener” and the “ΔV50 (mV)” value is given as −8.4 mV. Moreover, the EC50 at Kv7.2/3 channels (setting [2]) came to 3 µM. For `O=C(NCCOCCO)c1ccccc1Nc1cccc(C(F)(F)F)c1` [NH16] the same measures were “Opener”, −5.5 mV and 9 µM. For `Cc1c(Cl)cccc1Nc1ccccc1C(=O)NCCOCCO` [NH18] the same measures were “Opener”, −3.7 mV and 6 µM. Turning to `O=C(Cc1ccccc1Nc1c(Cl)cccc1Cl)OCC1CO1` (stereo not drawn) [NH21], the Activity entry on Kv7.2/3 channels is on record as “potent M-channel blockers; also recorded: Blocker”. Besides, the EC50 on Kv7.2/3 channels (setting [3]) stood at 100 µM. Take `O=C(O)Cc1cc([N+](=O)[O-])ccc1Nc1c(Cl)cccc1Cl` [NH24]: the Activity result at Kv7.2/3 channels is recorded as “Opener”. Regarding `O=C(Cc1ccccc1Nc1c(Cl)cccc1Cl)NCCO` [NH27], the Activity result on Kv7.2/3 channels is “Opener”. For the molecule `O=C(Cc1cc([N+](=O)[O-])ccc1Nc1c(Cl)cc([N+](=O)[O-])cc1Cl)NCCO` [NH28], at Kv7.2/3 channels, the Activity result is listed as “Opener”. Same read-out and setting: next, `CC(C(=O)O)c1cccc(Oc2ccccc2)c1` (stereo not drawn) [fenoprofen, reference compound]: “do not activate Kv7.2/3 channels”; `O=C(O)c1ccccc1Nc1cccc(C(F)(F)F)c1` [flufenamate, reference compound]: “potent M-channel openers”. Still for that read-out and setting: next, `CC(C(=O)O)c1ccc(-c2ccccc2)c(F)c1` (stereo not drawn) [flurbiprofen, reference compound]: “do not activate Kv7.2/3 channels”. Still for that read-out and setting: next, `Cc1cccc(Nc2ccccc2C(=O)O)c1C` [mefenamate, reference compound]: “potent M-channel openers”; `COc1ccc2cc([C@H](C)C(=O)O)ccc2c1` [naproxen, reference compound]: “do not activate Kv7.2/3 channels”. With `O=C1NC(=O)C(c2ccccc2)(c2ccccc2)N1` [phenyloin], the “protection in MES” value in assay [1] (20 mg/kg intraperitoneal) was “fully prevented hind limb extension”. Consider `CCCC(CCC)C(=O)[O-].[Na+]` [sodium valproate], for which the “protection in MES” value in assay [1] (500 mg/kg intraperitoneal) is “fully prevented hind limb extension”. Turning to `Cc1c(Cl)cccc1Nc1ccccc1C(=O)O` [tolfenamate, reference compound], the Activity entry on Kv7.2/3 channels is given as “potent M-channel openers”. Consider Zinc pyrithione [reference compound], for which the “activation of S4 mutant R207W” value at KCNQ2 mutant R207W is “activate very potently”.

As a reminder, the EC50 is the concentration that produces a half-maximal response.
